The test system of experiment [1] is immature rat uterus. As to the kind of experiment: Immature Uterine Wet Weight Assay, agonist mode (Example 906). The format is in vivo. To be noted: dosed PO, QD×3. The procedure:
Female immature CD-IGS rats (21 days old upon arrival) are treated for three days. Animals are dosed daily for three days. For Antagonist Mode, Vehicle or test compound is administered orally by gavage followed 15 minutes later by an oral dose of 0.1 mg/kg Ethynyl Estradiol. For Agonist Mode, Vehicle or test compound is administered orally by gavage. On the fourth day 24 hours after dose, plasma is collected for pharmacokinetic analysis. Immediately following plasma collection, the animals are euthanized and the uterus removed and weighed.
Uteri and ovaries from 2 animals per group are fixed in 10% neutral buffered formalin and paraffin embedded, sectioned and stained for H&E (SDPath). Stained tissues are analyzed and read by a board certified pathologist. […]
Mice were treated with Formula I compounds (1R,3R)-1-(2,6-difluoro-4-((1-(3-fluoropropyl)azetidin-3-yl)oxy)phenyl)-2-(2-fluoro-2-methylpropyl)-3-methyl-2,3,4,9-tetrahydro-1H-pyrido[3,4-b]indole 101 and (1R,3R)-1-(2,6-difluoro-4-(2-(3-(fluoromethyl)azetidin-1-yl)ethoxy)phenyl)-2-(2-fluoro-2-methylpropyl)-3-methyl-2,3,4,9-tetrahydro-1H-pyrido[3,4-b]indole 102, tamoxifen, fulvestrant, AZD9496 (WO 2014/191726, Example 1, page 74; U.S. Pat. No. 9,155,727), and two controls: Vehicle and Vehicle plus ethynyl estradiol (EE). […] Uterine Wet Weight (UWW): Body Weight ratios were calculated. […]

In experiment [2] the target is T1, estrogen receptor alpha (ESR1) (Homo sapiens, UniProt P03372).
T1 construct: endogenous in cells; host or cells: MCF7 breast cancer cells
T1 sequence (P03372 1-595): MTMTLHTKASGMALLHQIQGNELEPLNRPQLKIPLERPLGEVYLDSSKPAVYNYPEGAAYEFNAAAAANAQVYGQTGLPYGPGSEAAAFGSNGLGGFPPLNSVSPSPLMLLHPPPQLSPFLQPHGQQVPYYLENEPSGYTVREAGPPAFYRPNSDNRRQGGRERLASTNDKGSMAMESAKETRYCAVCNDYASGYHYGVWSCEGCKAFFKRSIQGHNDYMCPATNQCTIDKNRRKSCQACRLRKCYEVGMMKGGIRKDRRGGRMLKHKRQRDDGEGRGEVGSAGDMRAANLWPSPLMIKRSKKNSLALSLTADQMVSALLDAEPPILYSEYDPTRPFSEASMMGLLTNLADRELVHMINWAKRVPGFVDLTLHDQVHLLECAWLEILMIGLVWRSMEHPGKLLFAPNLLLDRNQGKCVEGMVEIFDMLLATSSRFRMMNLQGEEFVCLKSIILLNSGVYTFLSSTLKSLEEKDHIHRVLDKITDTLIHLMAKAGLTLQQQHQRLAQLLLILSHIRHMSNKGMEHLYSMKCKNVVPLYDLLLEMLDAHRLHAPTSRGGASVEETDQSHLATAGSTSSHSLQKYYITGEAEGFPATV
As to the kind of experiment: Breast Cancer Cell ERa High Content Fluorescence Imaging Degradation Assay (Example 901). As to conditions: Table 1b; MCF7 breast cancer cells, 4 hours; plateau of the maximal effect. The experiment is classed as cell-based. Put shortly: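 MCF7 cells in phenol red-free RPMI with 10% charcoal-stripped FBS, exposed to compound at 0.05–835 nM (10-point, 1.8×, duplicate; 0.84% DMSO) for 4 h at 37 °C. Fixed cells immunostained for ESR1 (F10 mAb, Alexa 488) with Hoechst nuclear mask; nuclear ESR1 intensity imaged per cell. DMSO and 5 nM fulvestrant set 0%/100%; EC50 and Sinf by robust fit.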

The subject of experiment [3] is MCF7 cells. As to the kind of experiment: In vitro cell proliferation assays (Examples 902 and 903), MCF7. The experiment is classed as cell-based. To be noted: Homo sapiens, MCF7, Table 1b, read-out: ER-alpha MCF7 HCS (EC50).

On to `C[C@@H]1Cc2c([nH]c3ccccc23)[C@@H](c2c(F)cc(/C=C/C(=O)O)cc2F)N1CC(C)(C)F` [AZD9496], for which the “activity in agonist mode UWW assay” value in experiment [1] is on record as “partial agonist”.

Turning to `CO[C@@H](c1cc(F)c([C@@H]2c3[nH]c4ccccc4c3C[C@@H](C)N2CC(F)(F)CO)c(F)c1)C1CN(CCCF)C1` [Compound 169, 3-((1R,3R)-1-(2,6-Difluoro-4-((R)-(1-(3-fluoropropyl)azetidin-3-yl)(methoxy)methyl)phenyl)-3-methyl-3,4-dihydro-1H-pyrido[3,4-b]indol-2(9H)-yl)-2,2-difluoropropan-1-ol], in experiment [2], the “ER-alpha MCF7 HCS (S inf)” value is −89%. Besides, the EC50 (usually the concentration needed to bring the measured effect to its halfway point) in experiment [3] was 0.108 nM.

Regarding `CO[C@H](c1cc(F)c([C@@H]2c3[nH]c4ccccc4c3C[C@@H](C)N2CC(F)(F)CO)c(F)c1)C1CN(CCCF)C1` [Compound 170, 3-((1R,3R)-1-(2,6-Difluoro-4-((S)-(1-(3-fluoropropyl)azetidin-3-yl)(methoxy)methyl)phenyl)-3-methyl-3,4-dihydro-1H-pyrido[3,4-b]indol-2(9H)-yl)-2,2-difluoropropan-1-ol], the “ER-alpha MCF7 HCS (S inf)” value in experiment [2] is −94%. Further, the EC50 in experiment [3] came to 0.078 nM.

Take `C[C@@H]1Cc2c([nH]c3ccccc23)[C@@H](c2ccc([C@H](O)C3CN(CCCF)C3)c(F)c2)N1CC(F)(F)CO` [Compound 171, 2,2-difluoro-3-((1R,3R)-1-(3-fluoro-4-((R)-(1-(3-fluoropropyl)azetidin-3-yl)(hydroxy)methyl)phenyl)-3-methyl-1,3,4,9-tetrahydro-2H-pyrido[3,4-b]indol-2-yl)propan-1-ol]: in experiment [2], the “ER-alpha MCF7 HCS (S inf)” value is reported as −93%. Further, the 50% effective concentration (EC50) in experiment [3] turned out to be 0.087 nM.

On to `C[C@@H]1Cc2c([nH]c3ccccc23)[C@@H](c2ccc([C@@H](O)C3CN(CCCF)C3)c(F)c2)N1CC(F)(F)CO` [Compound 172, 2,2-difluoro-3-((1R,3R)-1-(3-fluoro-4-((S)-(1-(3-fluoropropyl)azetidin-3-yl)(hydroxy)methyl)phenyl)-3-methyl-1,3,4,9-tetrahydro-2H-pyrido[3,4-b]indol-2-yl)propan-1-ol], for which the “ER-alpha MCF7 HCS (S inf)” value in experiment [2] is listed as −101%. Also, in experiment [3], the half-maximal effective concentration (EC50) was 0.051 nM.

Consider `C[C@@H]1Cc2c([nH]c3ccccc23)[C@@H](c2ccc([C@H](O)C3CN(CCCF)C3)c(F)c2F)N1CC(F)(F)CO` [Compound 173, 3-((1R,3R)-1-(2,3-difluoro-4-((R)-(1-(3-fluoropropyl)azetidin-3-yl)(hydroxy)methyl)phenyl)-3-methyl-1,3,4,9-tetrahydro-2H-pyrido[3,4-b]indol-2-yl)-2,2-difluoropropan-1-ol], for which the “ER-alpha MCF7 HCS (S inf)” value in experiment [2] is −100%. Also, in experiment [3], the EC50 came out at 0.072 nM.

In the case of `C[C@@H]1Cc2c([nH]c3ccccc23)[C@@H](c2ccc([C@@H](O)C3CN(CCCF)C3)c(F)c2F)N1CC(F)(F)CO` [Compound 174, 3-((1R,3R)-1-(2,3-difluoro-4-((S)-(1-(3-fluoropropyl)azetidin-3-yl)(hydroxy)methyl)phenyl)-3-methyl-1,3,4,9-tetrahydro-2H-pyrido[3,4-b]indol-2-yl)-2,2-difluoropropan-1-ol], the “ER-alpha MCF7 HCS (S inf)” value in experiment [2] is on record as −97%. In addition, in experiment [3], the EC50 was found to be 0.071 nM.

Consider `COc1cc([C@@H]2c3[nH]c4ccccc4c3C[C@@H](C)N2CC(F)(F)CO)ccc1[C@H](O)C1CN(CCCF)C1` [Compound 175, 2,2-difluoro-3-((1R,3R)-1-(4-((R)-(1-(3-fluoropropyl)azetidin-3-yl)(hydroxy)methyl)-3-methoxyphenyl)-3-methyl-1,3,4,9-tetrahydro-2H-pyrido[3,4-b]indol-2-yl)propan-1-ol], for which the “ER-alpha MCF7 HCS (S inf)” value in experiment [2] is recorded as −96%. Further, the EC50 in experiment [3] came to 0.63 nM.

As for `COc1cc([C@@H]2c3[nH]c4ccccc4c3C[C@@H](C)N2CC(F)(F)CO)ccc1[C@@H](O)C1CN(CCCF)C1` [Compound 176, 2,2-difluoro-3-((1R,3R)-1-(4-((S)-(1-(3-fluoropropyl)azetidin-3-yl)(hydroxy)methyl)-3-methoxyphenyl)-3-methyl-1,3,4,9-tetrahydro-2H-pyrido[3,4-b]indol-2-yl)propan-1-ol], the “ER-alpha MCF7 HCS (S inf)” value in experiment [2] is −81%. Further, the 50% effective concentration (EC50) in experiment [3] turned out to be 5.8 nM.

Values taken from patent publication US20170362228A1, “TETRAHYDRO-PYRIDO[3,4-b]INDOLE ESTROGEN RECEPTOR MODULATORS AND USES THEREOF” (Genentech, Inc., priority 2016, published 2017).
